Reference: ChEMBL document CHEMBL3507680, “University of Dundee, Gates Library screen for HepG2 cell viability”

Test: Human HepG2 cell viability assay in 384 well format
Format: toxicity, cell-based
Parameters: dose 125 nL, time 70.5 hour; cytotoxicity at 70.5 h: concentration not given beside the values
Conditions: HepG2 cells, read-out: Inhibition

COc1ccc(S(=O)(=O)N2C[C@@H]3CN(C)CCO[C@@H]3C2)cc1
cytotoxicity at 70.5 h: -4.18%

COCCn1c2c(ccc1=O)CCN(C(=O)CC1CC1)CC2
cytotoxicity at 70.5 h: -2.25%

CC(=O)N1CC[C@H]2OCC[C@@H](C(=O)Nc3cccnc3C)[C@@H]2C1
cytotoxicity at 70.5 h: -5.24%

CC(C)NC(=O)N1CCC2(CC1)Cc1ccccc1CN(C)C2=O
cytotoxicity at 70.5 h: -2.79%

N#Cc1ccc(C(=O)N2CCc3c(COCC4CC4)cncc3C2)cc1
cytotoxicity at 70.5 h: -5.21%

COCCNC(=O)C[C@@H]1COC[C@H]2CN(C(=O)C3CCOCC3)C[C@@H]12
cytotoxicity at 70.5 h: 1.49%

O=C(c1ccoc1)N1CCO[C@@H]2CNC[C@@H]21
cytotoxicity at 70.5 h: -1.42%

O=C(CC1CC1)N[C@@H]1CN(C(=O)c2ccoc2)C[C@@H]2CCCO[C@@H]21
cytotoxicity at 70.5 h: -12.7%

COc1cc(N2CCC3(CC(=O)N(Cc4csc(C)n4)C3)C2)ncn1 (stereo unspecified)
cytotoxicity at 70.5 h: -6.14%

Cc1occc1C(=O)N1C[C@@H]2CCCO[C@@H]2[C@H](NC(=O)CC2CC2)C1
cytotoxicity at 70.5 h: -7.56%

CCCNC(=O)c1cc2c(s1)CCN2c1ncccn1
cytotoxicity at 70.5 h: 3.12%

CN(C)CC(=O)N1Cc2nc(C(=O)N3CCCN(C)CC3)oc2C1
cytotoxicity at 70.5 h: -7.8%

O=C(CC1CC1)N[C@@H]1CN(C(=O)c2cccs2)C[C@@H]2CCCO[C@@H]21
cytotoxicity at 70.5 h: -7.28%

CC(C)C(=O)N1CC[C@H]2N(C)CC[C@@]2(C(=O)Nc2ccccc2)CC1
cytotoxicity at 70.5 h: -10.2%

O=C(C1CCOC1)N1C[C@@H]2CCN(C(=O)c3cscn3)[C@@H]2C1 (stereo partly specified)
cytotoxicity at 70.5 h: 14%

c1cnc(N2CCc3onc(CN4CCCC4)c3C2)cn1
cytotoxicity at 70.5 h: 6.11%

c1cnc(NCc2noc3c2CN(c2cnccn2)CC3)nc1
cytotoxicity at 70.5 h: -3.45%

Cc1cc(C(=O)NC2CCc3c(ccc(=O)n3CC(C)C)C2)no1 (stereo unspecified)
cytotoxicity at 70.5 h: -4.48%

CN(C)CCN1CCO[C@@H]2CCN(C(=O)c3cccn3C)CC[C@H]21
cytotoxicity at 70.5 h: 10.8%

CCS(=O)(=O)N1CCN(CC2CC2)c2ncccc2C1
cytotoxicity at 70.5 h: -2.09%

Cc1cc(C(=O)NC2CCc3c(ccc(=O)n3CCN(C)C)C2)no1 (stereo unspecified)
cytotoxicity at 70.5 h: -3.71%

CCN1Cc2ccccc2CC2(CCN(C)CC2)C1=O
cytotoxicity at 70.5 h: -7.96%

CCN1Cc2ccccc2CC2(CCN(C(=O)N(C)C)CC2)C1=O
cytotoxicity at 70.5 h: -5.37%

CC(=O)N1CCO[C@@H]2CN(S(=O)(=O)c3cccs3)CC[C@@H]2C1
cytotoxicity at 70.5 h: -9.77%

COCC1COCCC12CCN(S(=O)(=O)c1ccccc1C)CC2 (stereo unspecified)
cytotoxicity at 70.5 h: 7.67%

C[C@H]1CCCCN1CCCNc1nccc(-c2c[nH][nH]c2=O)n1
cytotoxicity at 70.5 h: 4.41%

CN1CCN(CC2CC2)C(=O)c2cnc(N3CCOCC3)nc21
cytotoxicity at 70.5 h: -3.35%

Cc1[nH]c2ccccc2c1-c1ccnc(N[C@H](CO)CC(C)C)n1
cytotoxicity at 70.5 h: -2.73%

COC(=O)c1ccc2c(-c3ccnc(N[C@@H](C)CO)n3)c[nH]c2c1
cytotoxicity at 70.5 h: -2.09%

CC[C@@H](C)[C@@H](N)C(=O)Nc1cccc(-c2cnc(N(C)C)nc2)c1
cytotoxicity at 70.5 h: -4.42%

O=C1CN(CC2CC2)Cc2nc(NCCc3ccccn3)sc21
cytotoxicity at 70.5 h: 26.4%

CC(C)NC(=O)NCc1cc(-c2ccco2)n(CC(F)(F)F)n1
cytotoxicity at 70.5 h: -5.8%

CN1CCCN(c2nccc(-c3c[nH]nc3-c3ccncc3)n2)CC1
cytotoxicity at 70.5 h: -3.42%

O=C(Nc1ccc(-c2cnc(NCCO)nc2)cc1)[C@@H]1CCCCN1
cytotoxicity at 70.5 h: -3.46%

CN(c1nccc(-c2cnc3sccn3c2=O)n1)C1CCCCC1
cytotoxicity at 70.5 h: -3.44%

O=c1c(-c2ccnc(N3CCCC[C@@H]3CO)n2)cnc2sccn12
cytotoxicity at 70.5 h: -4.35%

CN1CCN(CC2CC2)C(=O)c2cnc(N3CCC(CO)CC3)nc21
cytotoxicity at 70.5 h: -4.14%

O=c1[nH]c(-c2ccncc2)ncc1-c1ccnc(NC2CCCCC2)n1
cytotoxicity at 70.5 h: 18.2%

CC(C)[C@H](NS(C)(=O)=O)C(=O)NCc1cc(-c2ccccc2)n[nH]1
cytotoxicity at 70.5 h: -10.8%

COc1cccc(OC)c1-c1ccnc2cc(CC(=O)NC3CC3)nn12
cytotoxicity at 70.5 h: -11%

CCc1ccc(-c2ncc3c(n2)N(C)CCN(CCN(C)C)C3=O)cc1
cytotoxicity at 70.5 h: -5.02%

CC(C)NC(=O)N1CC(=O)c2sc(Nc3ccc(C#N)cc3)nc2C1
cytotoxicity at 70.5 h: -7.13%

COc1cccc(-c2ncc3c(n2)N(C)CCN(CCN(C)C)C3=O)c1
cytotoxicity at 70.5 h: -6.84%

Cc1cn2c(=O)c(-c3ccnc(N(C)C4CCCCC4)n3)cnc2s1
cytotoxicity at 70.5 h: -3.7%

Cc1csc2ncc(-c3ccnc(N4CCCN(C)CC4)n3)c(=O)n12
cytotoxicity at 70.5 h: -0.0913%

CC(C)Nc1nc2c(s1)C(=O)CN(C(=O)NCCc1ccccc1)C2
cytotoxicity at 70.5 h: -4.98%

COc1ccccc1Nc1nc2c(s1)C(=O)CN(C(=O)CC(C)C)C2
cytotoxicity at 70.5 h: 2.87%

O=c1c(-c2ccnc(NC3CCCCC3)n2)cnc2sc(Cl)cn12
cytotoxicity at 70.5 h: -5.61%

CC(C)Nc1ncc(-c2csc(NC(=O)C[C@H]3COCCN3)n2)cn1
cytotoxicity at 70.5 h: -10.2%

CNCC(=O)Nc1cccc(-c2cnc(NCCS(C)(=O)=O)nc2)c1
cytotoxicity at 70.5 h: 0.0271%

CC(C)[C@H](NS(C)(=O)=O)C(=O)NCc1cc(-c2ccccc2)nn1C
cytotoxicity at 70.5 h: 7.09%

CCNc1nc(-c2cccnc2)c(-c2ccnc(N3CCOCC3)n2)s1
cytotoxicity at 70.5 h: -10.7%

CC[C@H](C)[C@H](N)C(=O)N1CC(=O)c2sc(Nc3ccc(F)cc3)nc2C1
cytotoxicity at 70.5 h: 7.24%

CS(=O)(=O)NCc1cc(-c2cc(F)cc(F)c2)nc(N2CC[C@H](O)C2)n1
cytotoxicity at 70.5 h: -10.5%

O=c1[nH][nH]cc1-c1ccnc(NCCN2CCCC2)n1
cytotoxicity at 70.5 h: 50.4%

CN1CCN(CC2CC2)C(=O)c2cnc(N3CC[C@@H](O)C3)nc21
cytotoxicity at 70.5 h: 27.1%

Nc1nccc(-c2c[nH]nc2C2CCCCC2)n1
cytotoxicity at 70.5 h: 47.1%

Cc1c(C(C)NC2CCOCC2)cnn1-c1ccc(F)cc1F (stereo unspecified)
cytotoxicity at 70.5 h: 9.85%

CCn1c(CC2CCN(C(=O)C3CC(C(C)C)=NO3)CC2)nn(C)c1=O (stereo unspecified)
cytotoxicity at 70.5 h: -6.72%

CCNc1ncc(C(=O)NCc2ccc3nsnc3c2)cn1
cytotoxicity at 70.5 h: 0.938%

CN(Cc1nc(-c2ccccc2)no1)Cc1cnc(N2CCOCC2)s1
cytotoxicity at 70.5 h: 1.48%

CCC(O)CNC(=O)c1cc(COc2ccc(OC)cc2Cl)[nH]n1 (stereo unspecified)
cytotoxicity at 70.5 h: -1.08%

CSc1ncccc1C(=O)N1CCCC1c1ccc(C(=O)N(C)C)s1 (stereo unspecified)
cytotoxicity at 70.5 h: -15.4%

O=C(Cc1ccc(-c2ccccc2)cc1)N1CCOCC(O)C1 (stereo unspecified)
cytotoxicity at 70.5 h: -9.74%

COc1cc(C(=O)NCc2cc(N3CCOCC3)ncn2)ccn1
cytotoxicity at 70.5 h: 20.4%

COCCC1(CO)CCCN(C(=O)c2ccc(C(C)C)[nH]c2=O)C1 (stereo unspecified)
cytotoxicity at 70.5 h: 11.1%

COc1ccc(-c2cn[nH]c2)cc1CNC1CCCC1
cytotoxicity at 70.5 h: -19.5%

Cn1ncc(N2CCC(CNC3CC(c4ccccc4)C3)CC2)cc1=O (stereo unspecified)
cytotoxicity at 70.5 h: -5.35%

Cc1ccccc1N1CCN(C(=O)c2cnc(N(C)C)nc2C)C(C)C1 (stereo unspecified)
cytotoxicity at 70.5 h: -7.48%

Nc1ncccc1CN1CCCn2nc(CCC(=O)NC3CC3)cc2C1
cytotoxicity at 70.5 h: -2.41%

CN(CCc1cn[nH]c1)C(=O)C1CC(=O)N(Cc2ccccn2)C1 (stereo unspecified)
cytotoxicity at 70.5 h: 6.7%

CCc1cn[nH]c1C1CCN(C(=O)c2cc(C(C)=O)c(C)[nH]c2=O)CC1
cytotoxicity at 70.5 h: -9.17%

Cc1ccc(=O)n(CC(=O)N(C)Cc2csc(-c3cccs3)n2)n1
cytotoxicity at 70.5 h: -7.16%

Cc1ccc2nc(C)c(C)c(C(=O)N3CCS(=O)(=O)CC3)c2c1
cytotoxicity at 70.5 h: -12.9%

CC(C)n1cnnc1CN(C)Cc1ccc(CO)o1
cytotoxicity at 70.5 h: -22.8%

CN(C)Cc1cncc2c1CCN(C1CCOCC1)C2
cytotoxicity at 70.5 h: -8.32%

CO[C@@H]1CCN(Cc2ccoc2)C[C@@H]1Cc1ccccc1
cytotoxicity at 70.5 h: 1.1%

COc1ccc(C[C@H]2CN(Cc3ccoc3)CC[C@@H]2OC)cc1
cytotoxicity at 70.5 h: -2.46%

COCCNC(=O)C[C@@H]1COC[C@H]2CN(CC3CCOCC3)C[C@@H]12
cytotoxicity at 70.5 h: 1.35%

Cc1noc(C)c1C(=O)N1Cc2ncn(C)c2C(COCC(C)C)C1 (stereo unspecified)
cytotoxicity at 70.5 h: -7%

COCc1cncc2c1CCN(C(=O)c1cccc(C#N)c1)C2
cytotoxicity at 70.5 h: -8.16%

COCc1cncc2c1CCN(C(=O)c1ccc(C#N)cc1)C2
cytotoxicity at 70.5 h: -10.3%

COc1cc(N2C[C@H]3CN(Cc4ccccn4)C[C@H]3C2)ncn1
cytotoxicity at 70.5 h: -4.15%

O=C(c1ccco1)N1CCO[C@@H]2CN(Cc3nccs3)CC[C@@H]2C1
cytotoxicity at 70.5 h: -6.2%

CC(C)COCC1CN(C(=O)c2cscn2)Cc2ncn(C)c21 (stereo unspecified)
cytotoxicity at 70.5 h: -6.45%

COC(=O)CCC(=O)N1CCCC2(CCCN2Cc2cccc(F)c2)C1 (stereo unspecified)
cytotoxicity at 70.5 h: -6.42%

Cc1noc(C)c1C(=O)N1Cc2ncn(C)c2C(COCC2CC2)C1 (stereo unspecified)
cytotoxicity at 70.5 h: -7.58%

CCn1nnc2c1C(COCC(=O)N(C)C)CN(Cc1ccco1)C2 (stereo unspecified)
cytotoxicity at 70.5 h: 10.6%

Cc1nc(COCC2CN(C(N)=O)Cc3nccn3C2)cs1 (stereo unspecified)
cytotoxicity at 70.5 h: -5.1%

Cc1nc(COCC2CN(C(=O)N(C)C)Cc3nccn3C2)cs1 (stereo unspecified)
cytotoxicity at 70.5 h: -5.94%

CC(C)N1CCO[C@@H]2CN(S(=O)(=O)c3cccs3)CC[C@@H]2C1
cytotoxicity at 70.5 h: -7.93%

CCN1CCO[C@@H]2CN(S(=O)(=O)c3cccs3)CC[C@@H]2C1
cytotoxicity at 70.5 h: -6.19%

Cn1cc(CN2CCc3onc(C(=O)N4CCCC4)c3C2)cn1
cytotoxicity at 70.5 h: 5.88%

CC(C)CN1CCC(N2CCC(C(=O)N(C)C)CC2)CC1
cytotoxicity at 70.5 h: 3.98%

CN1CCO[C@@H]2CN(S(=O)(=O)c3cccnc3)C[C@@H]2C1
cytotoxicity at 70.5 h: 2.04%

Cc1ccc(O[C@@H]2C[C@H]3CN(c4ncc(F)cn4)CCN3C2)cc1
cytotoxicity at 70.5 h: -0.913%

Cc1cccc(CNC2CC3(CCN(CCO)CC3)c3ccccc32)n1 (stereo unspecified)
cytotoxicity at 70.5 h: 2.24%

Cc1noc(C)c1CN1CCC2(CCN(Cc3cccc(F)c3)CC2)C1
cytotoxicity at 70.5 h: -9.09%

Cc1ccc(CNC2CC3(CCN(CCO)CC3)c3ccccc32)s1 (stereo unspecified)
cytotoxicity at 70.5 h: 4.93%

CS(=O)(=O)N1CCO[C@@H]2CCN(Cc3ccncc3)CC[C@H]21
cytotoxicity at 70.5 h: -6.06%

CN(C)C(=O)COCc1cncc2c1CCN(C1CCOCC1)C2
cytotoxicity at 70.5 h: -7.93%

CN(C)C1CCC2(CCN(Cc3nccn3C)CC2)c2ccccc21 (stereo unspecified)
cytotoxicity at 70.5 h: -4.41%

CCN1Cc2nccn2CC(COCc2csc(C)n2)C1 (stereo unspecified)
cytotoxicity at 70.5 h: -3.32%

Cc1noc(C)c1CN1C[C@H](OCC2CCN(C)CC2)[C@H]2COC[C@H]21
cytotoxicity at 70.5 h: 30.4%

Fc1cnc(N2CCN3C[C@H](Oc4cccnc4)C[C@H]3C2)nc1
cytotoxicity at 70.5 h: -3.94%

Cc1ccc(CN2CC[C@@H]3OCCN(Cc4ccncc4)[C@H]3CC2)s1
cytotoxicity at 70.5 h: -6.32%
